Results on 41 compounds are retold here after patent US6211244A, “Calcium receptor-active compounds” (priority 1995, dated 2001).

Where a name gives a salt, the structure may show the parent alone.

This test has as its target T1, human calcium receptor (Homo sapiens, UniProt P41180, R990G).
T1 construct: expressed in transfected cells; host or cells: HEK 293
T1 sequence (P41180 20-1078 R990G): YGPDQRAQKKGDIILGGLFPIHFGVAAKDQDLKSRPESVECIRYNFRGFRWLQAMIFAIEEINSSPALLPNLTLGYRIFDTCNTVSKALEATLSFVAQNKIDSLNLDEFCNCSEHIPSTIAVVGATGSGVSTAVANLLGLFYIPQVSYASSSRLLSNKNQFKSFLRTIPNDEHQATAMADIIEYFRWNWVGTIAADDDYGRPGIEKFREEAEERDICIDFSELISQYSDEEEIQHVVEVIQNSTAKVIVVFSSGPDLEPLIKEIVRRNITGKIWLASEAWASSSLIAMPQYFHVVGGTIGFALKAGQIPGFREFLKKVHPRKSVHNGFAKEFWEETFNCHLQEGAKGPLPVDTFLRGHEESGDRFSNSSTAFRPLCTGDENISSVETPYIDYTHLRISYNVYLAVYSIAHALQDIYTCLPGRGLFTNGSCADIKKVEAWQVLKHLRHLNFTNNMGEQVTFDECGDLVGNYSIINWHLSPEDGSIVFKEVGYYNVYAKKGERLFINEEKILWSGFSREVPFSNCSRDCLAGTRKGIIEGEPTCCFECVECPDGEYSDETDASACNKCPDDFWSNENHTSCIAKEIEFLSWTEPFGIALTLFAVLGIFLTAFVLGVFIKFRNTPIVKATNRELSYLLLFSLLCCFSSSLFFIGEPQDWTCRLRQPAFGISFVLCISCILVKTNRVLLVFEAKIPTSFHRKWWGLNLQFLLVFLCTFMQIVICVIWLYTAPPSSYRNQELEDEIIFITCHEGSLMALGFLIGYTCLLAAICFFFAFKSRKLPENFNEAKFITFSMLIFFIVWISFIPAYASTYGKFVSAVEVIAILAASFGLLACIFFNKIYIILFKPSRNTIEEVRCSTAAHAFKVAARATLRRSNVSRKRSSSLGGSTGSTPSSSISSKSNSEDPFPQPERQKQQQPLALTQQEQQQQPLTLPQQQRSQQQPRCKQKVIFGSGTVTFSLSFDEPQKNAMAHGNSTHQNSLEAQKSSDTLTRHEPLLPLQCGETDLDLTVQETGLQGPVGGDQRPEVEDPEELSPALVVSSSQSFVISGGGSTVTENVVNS
The test is described as follows: increases in [Ca^2+ ]i in HEK-293 cells expressing the human calcium receptor (fura-2 loaded HEK 293/pHuPCaR4.0 cells), % activity. In kind it is cell-based.

Regarding `COc1cccc([C@@H](C)NCC(C)c2ccccc2)c1` (some centres unmarked) [Compound 25M], the “% activity” value worked out at 79% (33 ng/mL), 100% (330 ng/mL) and 118% (3300 ng/mL).
Consider `CCOc1ccc(CN[C@H](C)c2cccc3ccccc23)cc1` [Compound 16W], for which the “% activity” value was determined as 73% (33 ng/mL) and 102% (330 ng/mL).
Take `COc1cccc([C@@H](C)NCC(C)=Cc2ccccc2)c1` [Compound 25G, (R)-N-(2-methyl-3-phenylprop-2-enyl)-1-(3-methoxyphenyl)ethylamine]: the “% activity” value reads like this: (33 ng/mL) 99%; (330 ng/mL) 115%; (3300 ng/mL) 130%.
For `COc1cccc([C@@H](C)NCCCc2ccc(C)cc2)c1` [Compound 8X], the “% activity” value runs as follows: (33 ng/mL) 40%; (330 ng/mL) 75%.
Consider `COc1cccc([C@@H](C)NCC(C)c2ccccc2)c1` (some centres unmarked) [Compound 25N], for which the “% activity” value was found to be 46% (33 ng/mL), 73% (330 ng/mL) and 94% (3300 ng/mL).
Consider `COc1cccc([C@@H](C)NC(C)CCc2ccccc2Cl)c1` (some centres unmarked) [21C = 4U], for which the “% activity” value is on record as 76% (33 ng/mL), 114% (330 ng/mL) and 134% (3300 ng/mL).
In the same order, the values of `C[C@@H](NCCCc1ccccc1Cl)c1cccc(OCC(F)F)c1` [Compound 21V] are 99%, 116% and 122%.
In the same order, the values of `COc1cccc([C@@H](C)NC[C@H](C)C=Cc2ccccc2)c1` [Compound 25H, (R,R)-N-(2-methyl-4-phenybut-3-enyl)-1-(3-methoxyphenyl)ethylamine] are 89%, 107% and 115%.
In the same order, the values of `COc1cccc([C@@H](C)NCC=Cc2c(C)cc(C)cc2C)c1` [Compound 12D, (R)-N-[3-(2,4,6-trimethylphenyl)prop-2-enyl]-1-(3-methoxyphenyl)ethylamine] are 52%, 109% and 128%.
In the case of `C[C@@H](NCc1ccc(Cl)cc1)c1cccc2ccccc12` [Compound 13O], the “% activity” value (33 ng/mL) was 94% and the “% activity” value (330 ng/mL) was determined as 115%.
As to `COc1cccc([C@@H](C)NCCCc2cc(F)cc(F)c2)c1` [Compound 24M], the “% activity” value (33 ng/mL) was found to be 99%, the “% activity” value (330 ng/mL) is recorded as 134% and the “% activity” value (3300 ng/mL) is 132%.
Turning to `C[C@@H](NCc1ccc(N(C)C)cc1)c1cccc2ccccc12` [Compound 13V], the “% activity” value by setting is: (33 ng/mL) 79%; (330 ng/mL) 110%.
For `C[C@@H](NCc1cccc(OC(F)(F)F)c1)c1cccc2ccccc12` [Compound 23E], the “% activity” value runs as follows: (33 ng/mL) 102%; (330 ng/mL) 113%; (3300 ng/mL) 137%.
In the case of `COc1cccc([C@@H](C)N[C@@H](C)CCc2cccc(C(F)(F)F)c2)c1` [Compound 21X], the “% activity” value stood at 51% (33 ng/mL), 101% (330 ng/mL) and 119% (3300 ng/mL).
For the compound `C[C@@H](N[C@H](C)c1cccc2ccccc12)c1ccccc1` [Compound 14O], the “% activity” value amounted to 102% (33 ng/mL), 119% (330 ng/mL) and 119% (3300 ng/mL).
`Cc1ccc(CN[C@H](C)c2cccc3ccccc23)cc1` [Compound 13P]: the “% activity” value is listed as 83% (33 ng/mL) and 110% (330 ng/mL).
For the compound `Cc1cc(C(C)NC(C)c2cccc3ccccc23)ccc1OCc1ccccc1` (mixture of isomers) [Compound 25X], the “% activity” value is, setting by setting: (33 ng/mL) 72%; (330 ng/mL) 94%; (3300 ng/mL) 96%.
As for `COc1ccc(CCNC(C)c2cccc3ccccc23)cc1` (centres unmarked) [Compound 15J], the “% activity” value by setting is: (33 ng/mL) 64%; (330 ng/mL) 75%; (3300 ng/mL) 80%.
For `CC(NC1CC1c1ccccc1)c1cccc2ccccc12` (centres unmarked) [Compound 10V], the “% activity” value by setting is: (33 ng/mL) 62%; (330 ng/mL) 99%.
Turning to `COc1cccc(C(C)NC(C)c2cccc(OC)c2)c1` (centres unmarked) [Compound 16O], the “% activity” value runs as follows: (33 ng/mL) 21%; (330 ng/mL) 81%; (3300 ng/mL) 129%.
The corresponding values for `COc1ccc([C@@H](C)N[C@@H](C)c2cccc(OC)c2)cc1` [Compound 16M, (S,R)-N-[1-(4-methoxyphenyl)ethyl]-1-(3-methoxyphenyl)ethylamine] are 11%, 68% and 130%.
As to `COc1cccc(C(C)NCCCc2cc(OC)c(OC)c(OC)c2)c1` (centres unmarked) [Compound 8S], the “% activity” value is, setting by setting: (33 ng/mL) 42%; (330 ng/mL) 73%.
Turning to `COc1cccc([C@@H](C)NCc2ccc(OC)c(OC)c2)c1` [Compound 25K], the “% activity” value (33 ng/mL) is recorded as 86%, the “% activity” value (330 ng/mL) was 107% and the “% activity” value (3300 ng/mL) worked out at 124%.
The corresponding values for `COc1cccc([C@@H](C)NCC=Cc2cccc(C)c2)c1` [Compound 12G, (R)-N-[3-(3-methylphenyl)prop-2-enyl]-1-(3-methoxyphenyl)ethylamine] are 81%, 139% and 139%.
In the case of `COc1cccc(C(C)NCc2ccc3ccccc3c2)c1` (centres unmarked) [Compound 10P], the “% activity” value (33 ng/mL) came out at 74% and the “% activity” value (330 ng/mL) came to 102%.
With `COc1ccc(CNC(C)c2ccccc2)cc1C` (centres unmarked) [Compound 23G], the “% activity” value is 67% (33 ng/mL), 93% (330 ng/mL) and 127% (3300 ng/mL).
With `Cc1ccccc1C(C)NCCC(c1ccccc1)c1ccccc1` (centres unmarked) [Compound 3L], the “% activity” value stood at 28% (33 ng/mL) and 81% (330 ng/mL).
In the same order, the values of `CC(COc1ccccc1)NC(C)c1ccccc1` (centres unmarked) [Compound 5G] are 16% and 58%.
With `C[C@@H](NCc1ccc2c(c1)OCO2)c1cccc2ccccc12` [Compound 16R], the “% activity” value came out at 76% (33 ng/mL) and 100% (330 ng/mL).
For `COc1ccc(CNC(C)c2ccccc2C(F)(F)F)cc1C` (centres unmarked) [Compound 24B], the “% activity” value worked out at 34% (33 ng/mL), 61% (330 ng/mL) and 76% (3300 ng/mL).
In the same order, the values of `COc1cccc([C@@H](C)NCc2ccc3c(c2)OCCO3)c1` [Compound 25O] are 96%, 115% and 126%.
In the same order, the values of `COc1cccc([C@@H](C)NCc2ccc3c(c2)OCO3)c1` [Compound 25J] are 105%, 123% and 119%.
As for `CSc1cccc(C(C)NCCCc2ccccc2Cl)c1` (centres unmarked) [Compound 8K], the “% activity” value reads like this: (33 ng/mL) 81%; (330 ng/mL) 98%.
For the compound `Cc1ccc(CNCc2cccc3c(Br)cccc23)cc1C` [Compound 23D], the “% activity” value is, setting by setting: (33 ng/mL) 35%; (330 ng/mL) 66%; (3300 ng/mL) 91%.
Turning to `CC(NCc1cccc2ccccc12)c1ccccc1` (centres unmarked) [Compound 4I], the “% activity” value is, setting by setting: (33 ng/mL) 9%; (330 ng/mL) 40%.
The corresponding values for `CC(N[C@H](C)c1ccccc1)c1cccc2ccccc12` (some centres unmarked) [Compound 4G, N-[1-(1-naphthyl)ethyl)-1-phenylethylamine] are 46% and 83%.
`COc1cccc([C@@H](C)NCCCc2ccccc2OC)c1` [Compound 8U, N-3-(2-methoxyphenyl)-1-propyl-(R)-3-methoxy-α-methylbenzylamine hydrochloride]: the “% activity” value reads like this: (33 ng/mL) 82%; (330 ng/mL) 129%; (3300 ng/mL) 123%.
In the same order, the values of `COc1cccc([C@@H](C)NC[C@@H](C)c2ccc(CC(C)C)cc2)c1` [Compound 13Y] are 2%, 47% and 106%.
With `C=CCOc1cccc([C@@H](C)NCc2ccc3ccccc3c2)c1` [Compound 10Z], the “% activity” value by setting is: (33 ng/mL) 51%; (330 ng/mL) 96%.
In the same order, the values of `COc1ccccc1C(C)NCCC(c1ccccc1)c1ccccc1` (centres unmarked) [Compound 2S] are 29% and 67%.
Consider `CC(N[C@H](C)c1ccc2ccccc2c1)c1ccc(C(C)(C)C)cc1` (some centres unmarked) [Compound 13F], for which the “% activity” value is on record as 85% (33 ng/mL), 122% (330 ng/mL) and 125% (3300 ng/mL).
